In ChEMBL document CHEMBL1156449, “The nucleoside analog sangivamycin induces apoptotic cell death in breast carcinoma MCF7/adriamycin-resistant cells via protein kinase Cdelta and JNK activation” (J Biol Chem, 2007):
Calls of active or inactive are those of the source. The calls are words filed in the database; no cut-off is given here.

Legend:
[1] = tested on: MCF/WT; test: Induction of apoptosis in human drug sensitive MCF/WT cells assessed as annexin V binding to phosphatidylserine at 0.3 uM after 6 hrs; format: functional, cell-based
[2] = tested on: MCF/WT; test: Increase in Bcl-2 levels in human drug-sensitive MCF/WT cells at 0.3 uM by immunoblot analysis; format: functional, cell-based
[3] = Inhibition of nuclear protein kinase 1
[4] = tested on: MDA-MB-468; test: Induction of apoptosis in human multidrug resistant MDA-MB-468 cells assessed as accumulation of PARP at 0.3 uM after 48 hrs by immunoblot analysis; format: functional, cell-based
[5] = tested on: MCF/ADR; test: Induction of apoptosis in human multidrug resistant MCF/ADR cells assessed as activation of caspase 6 at 0.3 uM by immunoblot analysis; format: functional, cell-based
[6] = target: Transcription factor Jun (Homo sapiens) (UniProt P05412); test: Reduction in induction of c-Jun phosphorylation in human multidrug resistant MCF/ADR cells transfected with c-Jun siRNA at 0.3 uM after 48 hrs by immunoblot analysis; format: cell-based
Sequence of Transcription factor Jun (Homo sapiens) (P05412 whole entry): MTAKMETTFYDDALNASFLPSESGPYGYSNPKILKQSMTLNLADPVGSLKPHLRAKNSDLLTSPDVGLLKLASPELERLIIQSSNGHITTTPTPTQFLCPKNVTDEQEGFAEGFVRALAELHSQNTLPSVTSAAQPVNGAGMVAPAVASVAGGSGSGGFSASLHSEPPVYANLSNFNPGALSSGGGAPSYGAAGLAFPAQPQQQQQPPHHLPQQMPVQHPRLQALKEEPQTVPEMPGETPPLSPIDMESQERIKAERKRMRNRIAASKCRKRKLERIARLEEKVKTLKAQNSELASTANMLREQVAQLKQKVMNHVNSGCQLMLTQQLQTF

[7] = tested on: MCF/ADR; test: Induction of apoptosis in human multidrug resistant MCF/ADR cells assessed as annexin V binding to phosphatidylserine at 0.3 uM after 6 hrs; format: functional, cell-based
[8] = target: Transcription factor Jun (Homo sapiens) (UniProt P05412); test: Reduction in induction of non phosphorylated form of c-Jun in SP600125 pretreated human multidrug resistant MCF/ADR cells at 0.3 uM after 48 hrs by immunoblot analysis; format: cell-based
[9] = tested on: MCF/WT; test: Increase in wild-type full length p53 accumulation in human drug-sensitive MCF/WT cells at 0.3 uM by immunoblot analysis; format: functional, cell-based
[10] = tested on: MCF/ADR; test: Induction of apoptosis in human multidrug resistant MCF/ADR cells assessed as cleavage of lamin A at 0.3 uM by immunoblot analysis; format: functional, cell-based
[11] = Cell cycle arrest in human drug-sensitive MCF/WT cells assessed as accumulation at G2/M phase at 0.3 uM after 72 hrs by propidium fluorescence flow cytometry; format: functional, cell-based
[12] = target: Transcription factor Jun (Homo sapiens) (UniProt P05412); test: Reduction in induction of c-Jun expression in human multidrug resistant MCF/ADR cells at 0.3 uM after 48 hrs by immunoblot analysis in presence of caspase 9 inhibitor; format: cell-based
[13] = target: Bcl-2-like protein 1 (Homo sapiens) (UniProt Q07817); test: Inhibition of induction of Bcl-x/s phosphorylation in human multidrug resistant MCF/ADR cells at 0.3 uM after 48 hrs in presence of SP600125; format: functional, cell-based
Sequence of Bcl-2-like protein 1 (Homo sapiens) (Q07817 whole entry): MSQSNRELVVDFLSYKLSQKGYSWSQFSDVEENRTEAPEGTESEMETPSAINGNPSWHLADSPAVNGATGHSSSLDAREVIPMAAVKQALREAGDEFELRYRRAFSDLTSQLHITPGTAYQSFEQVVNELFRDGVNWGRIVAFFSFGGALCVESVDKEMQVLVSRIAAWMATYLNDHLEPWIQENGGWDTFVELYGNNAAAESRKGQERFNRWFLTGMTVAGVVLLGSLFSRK

[14] = tested on: MCF/ADR; test: Cytocidal effect in human multidrug resistant MCF/ADR cells assessed as decrease in number of viable cells at 0.1 uM after 72 hrs by MTT colorimetric assay; format: functional, cell-based
[15] = Cell cycle arrest in human drug-sensitive MCF/WT cells assessed as accumulation at G0/G1 phase at 0.3 uM after 48 hrs by propidium fluorescence flow cytometry; format: functional, cell-based
[16] = tested on: MCF/WT; test: Cytostatic effect in human drug sensitive MCF/WT cells assessed as slight increase in number of viable cells at 30 nM after 6 days by MTT colorimetric assay; format: functional, cell-based
[17] = Cell cycle arrest in human drug-sensitive MCF/WT cells assessed as accumulation at S phase at 0.3 uM after 24 hrs by propidium fluorescence flow cytometry; format: functional, cell-based
[18] = tested on: MCF/ADR; test: Cytocidal effect in human multidrug resistant MCF/ADR cells assessed as decrease in number of viable cells at 30 nM after 6 days by MTT colorimetric assay; format: functional, cell-based
[19] = Cell cycle arrest in human drug-sensitive MCF/WT cells assessed as accumulation at S phase at 0.3 uM after 48 hrs by propidium fluorescence flow cytometry; format: functional, cell-based
[20] = tested on: MCF/ADR; test: Reduction in induction of apoptosis in human multidrug resistant MCF/ADR cells assessed as suppression of PARP cleavage at 0.3 uM after 48 hrs by immunoblot analysis in presence of rottlerin; format: functional, cell-based
[21] = tested on: MCF/ADR; test: Inhibition of induction of apoptosis in human multidrug resistant MCF/ADR cells assessed as inhibition of cleavage of PARP at 0.3 uM after 48 hrs by immunoblot analysis in presence of pan-specific inhibitor; format: functional, cell-based
[22] = Inhibition of nuclear protein kinase 2
[23] = Inhibition of PKA
[24] = tested on: MCF/WT; test: Induction of apoptosis in human drug-sensitive MCF/WT cells assessed as cleavage of caspase 9 at 0.3 uM by immunoblot analysis; format: functional, cell-based
[25] = tested on: MCF/WT; test: Induction of apoptosis in human drug-sensitive MCF/WT cells assessed as activation of caspase 6 at 0.3 uM by immunoblot analysis; format: functional, cell-based
[26] = Cell cycle arrest in human drug-sensitive MCF/WT cells assessed as accumulation at G2/M phase at 0.3 uM after 24 hrs by propidium fluorescence flow cytometry; format: functional, cell-based
[27] = tested on: MCF-10A; test: Induction of apoptosis in human MCF10A cells assessed as accumulation of PARP at 0.3 uM after 48 hrs by immunoblot analysis; format: functional, cell-based
[28] = Cell cycle arrest in human multidrug resistant MCF/ADR cells assessed as accumulation at sub G0/G1 phase at 0.3 uM after 48 hrs by propidium fluorescence flow cytometry; format: functional, cell-based
[29] = tested on: MCF/ADR; test: Induction of apoptosis in human multidrug resistant MCF/ADR cells assessed as accumulation of PARP at 0.3 uM after 72 hrs by immunoblot analysis; format: functional, cell-based
[30] = Cell cycle arrest in human multidrug resistant MCF/ADR cells assessed as accumulation at G0/G1 phase at 0.3 uM after 24 hrs by propidium fluorescence flow cytometry; format: functional, cell-based
[31] = Cell cycle arrest in human drug-sensitive MCF/WT cells assessed as accumulation at G2/M phase at 0.3 uM after 48 hrs by propidium fluorescence flow cytometry; format: functional, cell-based
[32] = target: Transcription factor Jun (Homo sapiens) (UniProt P05412); test: Induction of c-Jun serine 73 phosphorylation in human multidrug resistant MCF/ADR cells at 0.3 uM; format: cell-based
[33] = tested on: MCF/WT; test: Induction of apoptosis in human drug-sensitive MCF/WT cells assessed as cleavage of lamin A at 0.3 uM by immunoblot analysis; format: functional, cell-based
[34] = target: T1, Rhodopsin kinase GRK1 (Homo sapiens, UniProt Q15835); test: Inhibition of rhodopsin kinase
T1 sequence (Q15835 whole entry): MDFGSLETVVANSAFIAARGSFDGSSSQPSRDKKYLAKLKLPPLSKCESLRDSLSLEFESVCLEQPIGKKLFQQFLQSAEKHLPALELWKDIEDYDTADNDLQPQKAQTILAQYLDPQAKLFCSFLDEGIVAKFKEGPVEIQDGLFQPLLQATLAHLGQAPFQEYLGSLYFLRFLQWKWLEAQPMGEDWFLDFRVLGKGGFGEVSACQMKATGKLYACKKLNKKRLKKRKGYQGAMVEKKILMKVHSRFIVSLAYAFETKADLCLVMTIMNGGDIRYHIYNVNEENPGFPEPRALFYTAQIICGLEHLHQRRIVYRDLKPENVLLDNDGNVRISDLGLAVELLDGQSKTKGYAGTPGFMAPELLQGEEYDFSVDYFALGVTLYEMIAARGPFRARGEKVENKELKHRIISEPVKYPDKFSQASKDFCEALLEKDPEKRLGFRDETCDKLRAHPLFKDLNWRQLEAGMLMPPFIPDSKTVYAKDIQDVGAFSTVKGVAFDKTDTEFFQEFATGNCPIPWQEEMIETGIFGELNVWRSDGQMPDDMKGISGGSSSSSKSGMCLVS

In the case of `NC(=O)c1cn([C@@H]2O[C@H](CO)[C@@H](O)[C@H]2O)c2ncnc(N)c12` [SANGIVAMYCIN], the Activity [1] is reported as “inactive”, the Activity [2] is reported as “Active” and the Ki [3] is reported as 200 µM. For the same molecule, the Activity [4] was “Active”, the Activity [5] was “Active” and the Activity [6] was “Active”. The Activity [7] was “Active”, the Activity [8] was “Active” and the Activity [9] was “Active”. The Activity [10] was “Active”, the Activity [11] was 28% and the Activity [12] was “inactive”. For the same molecule, the Activity [13] was “Active”, the Activity [14] was “Active” and the Activity [15] was 61%. For the same molecule, the Activity [16] was “Active”, the Activity [17] was 23% and the Activity [18] was “Active”. The Activity [19] was 9%, the Activity [20] was “Active” and the Activity [21] was “Active”. The Ki [22] was 100 µM, the IC50 [23] was 50 µM and the Activity [24] was “inactive”. The Activity [25] was “inactive”, the Activity [26] was 28% and the Activity [27] was “inactive”. The Activity [28] was 40%, the Activity [29] was “Active” and the Activity [30] was 33%. The Activity [31] was 27%, the Activity [32] was “Active” and the Activity [33] was “inactive”. The Ki [34] was 0.18 µM.
